Publication PMC10583824, “The rational design of ARUK2007145, a dual inhibitor of the α and γ isoforms of the lipid kinase phosphatidylinositol 5-phosphate 4-kinase (PI5P4K)” (RSC Medicinal Chemistry, 2023)
Values after ≈ are worked out from the molar mass of the structure shown.

Columns and labels:
MDCK-MDR1 cells = assay: MDR1-MDCK bi-directional permeability and efflux; conditions: MDCK-MDR1 cells; A2B; 10 µM
Method: MDR1-MDCK Permeability (bi-directional): was performed by Cyprotex Discovery. Briefly, compounds were administered at 10 µM (1% DMSO final) to the apical or basolateral side of a confluent monolayer of MDR1-MDCK cells, then incubated at 37 °C for 60 minutes before appearance on the opposite side of the monolayer was determined LC-MS/MS. The efflux ratio (ER) is calculated from the ratio of B-A to A-B permeabilities.

[1] = Turbidimetric aqueous solubility; type: physicochemical; conditions: pH 7.4, turbidimetric
Method: (§1) ADMET experimental methods […]
Turbidimetric aqueous solubility: analysis was performed by Cyprotex Discovery. Compound in DMSO at 10 mM was serially diluted to solutions of 0.1, 0.3, 1 and 3 mM in DMSO, then further diluted 1 in 100 in buffer (0.01 M PBS, pH 7.4, 1% DMSO final). 7 replicate wells of each dilution were equilibrated for 2 hours at 37 °C before absorbance is measured at 620 nm. The solubility is estimated from the concentration of test compound that produces an increase in absorbance above vehicle control (1% DMSO in buffer). […]

PI5P4Kα [2] = target: T1, PI5P4Kα (Homo sapiens, UniProt P48426); assay: biochemical
T1 sequence (P48426 1-406): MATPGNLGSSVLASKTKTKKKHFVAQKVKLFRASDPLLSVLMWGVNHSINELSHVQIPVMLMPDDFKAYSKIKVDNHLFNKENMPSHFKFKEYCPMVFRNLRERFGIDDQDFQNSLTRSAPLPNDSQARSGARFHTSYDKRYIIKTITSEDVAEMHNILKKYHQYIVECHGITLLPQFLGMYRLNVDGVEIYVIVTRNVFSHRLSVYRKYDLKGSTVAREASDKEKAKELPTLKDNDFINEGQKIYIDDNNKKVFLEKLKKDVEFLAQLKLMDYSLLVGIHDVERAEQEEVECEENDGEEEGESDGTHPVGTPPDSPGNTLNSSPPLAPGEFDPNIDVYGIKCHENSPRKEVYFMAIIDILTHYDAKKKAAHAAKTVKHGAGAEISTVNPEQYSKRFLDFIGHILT

PI5P4Kγ+ [3] = target: T2, PI5P4Kγ+ (Homo sapiens, UniProt Q8TBX8, D138G/D197E/E133P/E135D/E153T/E196G/G139A/N195G/S132L/S134N); assay: biochemical
T2 sequence (Q8TBX8 with tags, fused parts or gaps INS131LPN/S132D/E133S/S134Q/E135A/G136R/D138G/G139A/E153T/N195G/E196G/D197E): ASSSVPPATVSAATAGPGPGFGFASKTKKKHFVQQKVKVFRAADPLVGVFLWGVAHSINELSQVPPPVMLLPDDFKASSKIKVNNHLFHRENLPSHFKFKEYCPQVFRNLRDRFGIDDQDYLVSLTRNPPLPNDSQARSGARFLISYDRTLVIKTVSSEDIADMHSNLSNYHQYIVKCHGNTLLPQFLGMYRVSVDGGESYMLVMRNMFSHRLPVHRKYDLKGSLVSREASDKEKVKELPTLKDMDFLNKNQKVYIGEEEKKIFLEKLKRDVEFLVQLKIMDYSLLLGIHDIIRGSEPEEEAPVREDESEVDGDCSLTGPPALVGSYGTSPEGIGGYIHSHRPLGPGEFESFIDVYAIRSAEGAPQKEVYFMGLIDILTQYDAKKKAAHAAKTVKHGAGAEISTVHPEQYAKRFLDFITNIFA

PI5P4Kα [4] = target: T1, PI5P4Kα; conditions: for PI5P4Kα pIC50: ADP-Glo, footnote a: inconsistent replicates, value shown is upper limit; for ADP-Glo pIC50 PI5P4Kα: Table S1, two decimals, asterisk not explained
PI5P4Kγ+ [5] = conditions: ratio PI5P4Kα IC50 / PI5P4Kγ+ IC50, ADP-Glo
PI5P4Kβ = target: T3, PI5P4Kβ (Homo sapiens, UniProt P78356); assay: PI5P4Kβ ADP-Glo kinase assay
T3 sequence (P78356 1-416): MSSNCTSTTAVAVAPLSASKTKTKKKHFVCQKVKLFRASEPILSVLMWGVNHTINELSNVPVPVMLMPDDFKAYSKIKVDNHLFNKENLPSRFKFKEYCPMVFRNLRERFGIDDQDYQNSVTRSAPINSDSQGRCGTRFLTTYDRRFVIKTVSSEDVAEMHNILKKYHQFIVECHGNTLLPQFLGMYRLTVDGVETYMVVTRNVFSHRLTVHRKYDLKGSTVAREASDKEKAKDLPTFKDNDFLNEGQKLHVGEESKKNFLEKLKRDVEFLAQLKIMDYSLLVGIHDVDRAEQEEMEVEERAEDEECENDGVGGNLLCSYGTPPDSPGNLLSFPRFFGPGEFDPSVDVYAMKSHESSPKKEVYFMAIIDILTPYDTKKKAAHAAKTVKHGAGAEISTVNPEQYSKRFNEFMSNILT

PI5P4Kγ-WT = target: T4, PI5P4Kγ-WT (Homo sapiens, UniProt Q8TBX8); assay: InCELL Pulse cellular target engagement (thermal stabilisation) assay; conditions: Hek293 cells stably expressing ePL-tagged PI5P4Kγ
T4 sequence (Q8TBX8 1-421): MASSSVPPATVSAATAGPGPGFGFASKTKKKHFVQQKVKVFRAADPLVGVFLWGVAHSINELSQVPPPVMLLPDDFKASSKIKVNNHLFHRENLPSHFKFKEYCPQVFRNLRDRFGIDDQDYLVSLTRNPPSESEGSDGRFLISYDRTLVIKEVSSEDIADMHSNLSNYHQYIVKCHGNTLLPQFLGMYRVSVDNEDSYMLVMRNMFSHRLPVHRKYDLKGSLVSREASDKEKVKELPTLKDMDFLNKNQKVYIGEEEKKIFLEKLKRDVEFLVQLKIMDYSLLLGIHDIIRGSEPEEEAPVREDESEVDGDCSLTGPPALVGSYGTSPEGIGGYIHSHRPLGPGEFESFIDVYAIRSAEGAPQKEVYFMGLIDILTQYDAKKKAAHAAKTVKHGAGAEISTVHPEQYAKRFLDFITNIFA

[6] = Mouse liver microsome stability; type: in vitro ADME; conditions: mouse liver microsomes half-life; read-out: MLM t½
Method: as §1
Mouse Microsomal stability: analysis was performed by Cyprotex Discovery. Briefly, test compounds in DMSO
protein/mL) in the presence of NADPH (1 mM) at 37 °C. Aliquots were taken at time intervals (0, 5, 15, 30 and
compound remaining, allowing the determination of the half-life for the compound.

[7] = ADP-Glo pIC50 PI5P4Kα, Table S1, two decimals, asterisk not explained
[8] = ADP-Glo pIC50 PI5P4Kγ+, Table S1, two decimals, asterisk not explained
[9] = PI5P4Kγ+ pIC50, ADP-Glo, footnote a: inconsistent replicates, value shown is upper limit
[10] = PI5P4Kα pIC50, ADP-Glo, footnote a: inconsistent replicates, value shown is upper limit

Row | P app (A2B) (MDCK-MDR1 cells) | solubility at 2 h [1] | IC50 (PI5P4Kα [2]; [7]) | IC50 (PI5P4Kγ+ [3]; [8]) | IC50 (PI5P4Kγ+ [3]; [9]) | PI5P4Kα pIC50 (PI5P4Kα [4]) | Fold-selectivity (α IC50/γ IC50) (PI5P4Kγ+ [5]) | ADP-Glo pIC50 PI5P4Kβ (PI5P4Kβ) | InCELL Pulse pIC50 PI5P4Kγ-WT (PI5P4Kγ-WT) | half-life at 1 µM [6] | IC50 (PI5P4Kα [2]; [10]) | ADP-Glo pIC50 PI5P4Kα (PI5P4Kα [4]) | SMILES
1 | 6.23 10^−6 cm s^−1 | 1 µM (≈ 0.381 µg/mL) |  |  |  |  |  |  |  |  |  |  | CS(=O)(=O)c1ccc(Nc2ncnc3sc(-c4ccccc4)cc23)cc1 [Compound 5]
2 |  |  | 1410 nM | 22.4 nM | 20 nM | 5.9 | 63 |  |  |  |  |  | CS(=O)(=O)c1ccc(Nc2ncnc3sc(-c4ccncc4)cc23)cc1 [Compound 6]
3 | 2.88 10^−6 cm s^−1 | 30 µM (≈ 11.6 µg/mL) |  | 36.3 nM | 39.8 nM | 5.2 |  | 4.9 | 6.7 | 73.3 min |  |  | Cn1cc(-c2cc3c(Nc4ccc(S(C)(=O)=O)cc4)ncnc3s2)cn1 [Compound 8]
4 |  |  | 4570 nM | 34.7 nM | 31.6 nM | 5.3 | 130 |  |  |  |  |  | CS(=O)(=O)c1ccc(Nc2ncnc3sc(-c4cccnc4)cc23)cc1 [Compound 9]
5 | 3.13 10^−6 cm s^−1 | 30 µM (≈ 11.9 µg/mL) | 708 nM | 12.9 nM | 12.6 nM | 6.2 |  | 4.9 | 7.7 | 9.23 min |  |  | Cc1cnccc1-c1cc2c(Nc3ccc(S(C)(=O)=O)cc3)ncnc2s1 [Compound 10]
6 |  |  |  | 32.4 nM | ≥ 31.6 nM |  | 79 |  |  |  | ≥ 2510 nM | 5.58 | COc1cnccc1-c1cc2c(Nc3ccc(S(C)(=O)=O)cc3)ncnc2s1 [Compound 11]
7 |  |  |  | 64.6 nM | 63.1 nM |  | 130 |  |  |  | ≥ 7940 nM | 5.08 | CS(=O)(=O)c1ccc(Nc2ncnc3sc(-c4ccnc(Cl)c4)cc23)cc1 [Compound 13]
8 | 4.73 10^−6 cm s^−1 | 3 µM (≈ 1.25 µg/mL) | 708 nM | 12.9 nM | 12.6 nM | 6.2 |  | 4.9 | 7.1 | 383 min |  |  | CS(=O)(=O)c1ccc(Nc2ncnc3sc(-c4cccnc4Cl)cc23)cc1 [Compound 15]
9 | 1.33 10^−6 cm s^−1 | 10 µM (≈ 3.96 µg/mL) | 1120 nM | 20.9 nM | 20 nM | 6.0 |  | 4.7 | 7.3 | 35.5 min |  |  | Cc1ncccc1-c1cc2c(Nc3ccc(S(C)(=O)=O)cc3)ncnc2s1 [Compound 17]
10 |  |  | 3550 nM | 5250 nM | 5010 nM | 5.5 | 0.63 |  |  |  |  |  | Cc1cccc(Nc2ncnc3sc(-c4cccnc4C)cc23)c1 [Compound 21]
11 |  |  | 282 nM | 46.8 nM | 50.1 nM | 6.6 | 5.0 |  |  |  |  |  | CSc1ccc(Nc2ncnc3sc(-c4cccnc4C)cc23)cc1 [Compound 25]
12 | 3.7 ^d 10^−6 cm s^−1 | 3 µM (≈ 1.09 µg/mL) | 135 nM | 19.5 nM | 20 nM | 6.9 |  |  |  | 0.94 min |  |  | CSc1ccc(Nc2ncnc3sc(-c4ccncc4C)cc23)cc1 [Compound 26]
13 |  |  | 708 nM | 661 nM | 631 nM | 6.2 | 1.1 |  |  |  |  |  | COc1ccc(Nc2ncnc3sc(-c4ccncc4C)cc23)cc1 [Compound 27]
14 |  |  | 229 nM | 18.6 nM | 20 nM | 6.6 | 12 |  |  |  |  |  | CSc1ccc(Nc2ncnc3sc(-c4cccnc4Cl)cc23)cc1 [Compound 28]
15 |  |  |  |  | 50.1 nM | <4.3 | >980 |  |  |  |  |  | Cc1csc2ncnc(Nc3ccc(S(C)(=O)=O)cc3)c12 [Compound 31]
16 |  |  |  |  | 50.1 nM | 5.6 | 50 |  |  |  |  |  | CN(C(=O)c1csc2ncnc(Nc3ccc(S(C)(=O)=O)cc3)c12)c1ccccc1 [Compound 34]
17 |  |  |  |  | 200 nM | <4.3 | >250 |  |  |  |  |  | Cc1sc2ncnc(Nc3ccc(S(C)(=O)=O)cc3)c2c1C [Compound 35]
18 | 1.33 10^−6 cm s^−1 | 10 µM (≈ 4.17 µg/mL) | 355 nM | 11.7 nM | 12.6 nM | 6.5 |  |  | 7.4 | 70.8 min |  |  | CS(=O)(=O)c1ccc(Nc2ncnc3cc(-c4cccnc4Cl)sc23)cc1 [Compound 37]
19 | 12.9 10^−6 cm s^−1 | 10 µM (≈ 3.85 µg/mL) | 46.8 nM | 8.71 nM | 7.94 nM | 7.3 |  |  | 7.3 | 0.44 min |  |  | CSc1ccc(Nc2ncnc3cc(-c4cccnc4Cl)sc23)cc1 [Compound 39]
20 |  |  |  |  | 100 nM | 6.2 | 6.3 |  |  |  |  |  | Cc1ncccc1-c1cc2ncnc(Nc3ccc(S(F)(F)(F)(F)F)cc3)c2s1 [Compound 40]
21 |  |  |  | 562 nM | 501 nM | 5.5 | 5.9 |  |  |  |  | 5.48 | Cc1ncccc1-c1cc2ncnc(Nc3ccc4ncoc4c3)c2s1 [Compound 41]
22 | 3.15 10^−6 cm s^−1 | 10 µM (≈ 4.01 µg/mL) | 112 nM | 8.32 nM | 7.94 nM | 7.0 |  |  |  | 5.39 min |  |  | Cc1ncccc1-c1cc2ncnc(Nc3ccc(N4CCCC4=O)cc3)c2s1 [Compound 42]
